Reference: patent publication US20200339625A1, “NOVEL RADIOMETAL-BINDING COMPOUNDS FOR DIAGNOSIS OR TREATMENT OF PROSTATE SPECIFIC MEMBRANE ANTIGEN-EXPRESSING CANCER” (PROVINCIAL HEALTH SERVICES AUTHORITY, priority 2017, published 2020)

Key:
[1] = tested on: mice bearing PSMA-expressing LNCAP cancer xenografts; assay: Biodistribution of 68Ga-labeled compounds; format: in vivo
Outline: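 NOD-SCID IL2RγKO male mice carried subcutaneous LNCaP xenografts grown to 5-8 mm over 5-6 weeks. Organs and blood were collected at 1 or 3 h after injection of the radiotracer and gamma-counted. Uptake was normalized to injected dose via a standard curve and expressed as %ID/g.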

[2] = tested on: mice bearing LNCaP tumor xenografts; assay: PET/CT imaging of 68Ga-labeled compounds; format: in vivo; conditions: for change of tumor uptake from 1 h to 3 h post-injection: PET/CT images; for blood retention (qualitative): PET/CT images at 1 h and 3 h post-injection, comparison within the figure
Outline: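 Male NOD SCID IL2Rγ KO mice bore subcutaneous LNCaP xenografts (1×10^7 cells, tumours 5-8 mm) and received 6-8 MBq tracer via tail vein under 2% isoflurane. At 50 min p.i., a 10-min CT and a 10-min static PET were acquired. For the 3 h time point, scanning began at 170 min p.i. with a 15-min static PET.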

[3] = tested on: metastatic prostate cancer; conditions: advanced metastatic prostate cancer patients; cited from earlier work

`O=C([O-])CN1CCN(CC(=O)[O-])CCN(CC(=O)NCCCC[C@H](NC(=O)CNC(=O)CCCc2ccc([N+](=O)[O-])cc2)C(=O)NC[C@H]2CC[C@H](C(=O)N[C@@H](Cc3ccc4ccccc4c3)C(=O)NCCCC[C@H](NC(=O)N[C@@H](CCC(=O)O)C(=O)O)C(=O)O)CC2)CCN(CC(=O)[O-])CC1.[68Ga+3]` [^68Ga-HTK03089] showed an Adrenal glands uptake ([1]; 1 h post-injection) of 4.57 ± 1.06 % ID/g, a Blood uptake ([1]; 1 h post-injection) of 6.69 ± 0.27 % ID/g and a Bone uptake ([1]; 1 h post-injection) of 0.41 ± 0.08 % ID/g. For the same molecule, the Brain uptake ([1]; 1 h post-injection) was 0.09 ± 0.01 % ID/g, the Fat uptake ([1]; 1 h post-injection) was 2.14 ± 0.29 % ID/g and the Heart uptake ([1]; 1 h post-injection) was 1.73 ± 0.14 % ID/g. For the same molecule, the Intestine uptake ([1]; 1 h post-injection) was 0.76 ± 0.05 % ID/g, the Kidneys uptake ([1]; 1 h post-injection) was 91.1 ± 7.42 % ID/g and the Lacrimal uptake ([1]; 1 h post-injection) was 0.05 ± 0.03 % ID/g. For the same molecule, the Liver uptake ([1]; 1 h post-injection) was 1.33 ± 0.27 % ID/g, the Lungs uptake ([1]; 1 h post-injection) was 4.68 ± 0.35 % ID/g and the Muscle uptake ([1]; 1 h post-injection) was 0.79 ± 0.06 % ID/g. For the same molecule, the Pancreas uptake ([1]; 1 h post-injection) was 1.00 ± 0.07 % ID/g, the Salivary uptake ([1]; 1 h post-injection) was 3.95 ± 0.32 % ID/g and the Seminal uptake ([1]; 1 h post-injection) was 0.66 ± 0.24 % ID/g. It also gave a Spleen uptake ([1]; 1 h post-injection) of 8.56 ± 3.07 % ID/g, a Stomach uptake ([1]; 1 h post-injection) of 0.34 ± 0.07 % ID/g and a Tail uptake ([1]; 1 h post-injection) of 2.54 ± 0.33 % ID/g. For the same molecule, the Testes uptake ([1]; 1 h post-injection) was 1.35 ± 0.14 % ID/g, the Thyroid uptake ([1]; 1 h post-injection) was 2.32 ± 0.10 % ID/g and the Tumor uptake ([1]; 1 h post-injection) was 21.7 ± 2.48 % ID/g. For the same molecule, the “Tumor:Blood ratio” value ([1]; 1 h post-injection) was 3.25 ± 0.43, the “Tumor:Muscle ratio” value ([1]; 1 h post-injection) was 27.4 ± 4.01 and the Urine uptake ([1]; 1 h post-injection) was 47.9 ± 46.6 % ID/g. For the same molecule, the Adrenal glands uptake ([1]; 3 h post-injection) was 2.76 ± 0.44 % ID/g, the Blood uptake ([1]; 3 h post-injection) was 2.52 ± 0.69 % ID/g and the Bone uptake ([1]; 3 h post-injection) was 0.15 ± 0.05 % ID/g. It also gave a Brain uptake ([1]; 3 h post-injection) of 0.04 ± 0.02 % ID/g, a Fat uptake ([1]; 3 h post-injection) of 1.28 ± 0.25 % ID/g and a Heart uptake ([1]; 3 h post-injection) of 0.68 ± 0.16 % ID/g. For the same molecule, the Intestine uptake ([1]; 3 h post-injection) was 0.45 ± 0.10 % ID/g, the Kidneys uptake ([1]; 3 h post-injection) was 96.4 ± 21.9 % ID/g and the Lacrimal uptake ([1]; 3 h post-injection) was 0.00 ± 0.00 % ID/g. For the same molecule, the Liver uptake ([1]; 3 h post-injection) was 0.73 ± 0.41 % ID/g, the Lungs uptake ([1]; 3 h post-injection) was 2.14 ± 0.42 % ID/g and the Muscle uptake ([1]; 3 h post-injection) was 0.29 ± 0.04 % ID/g. The Pancreas uptake ([1]; 3 h post-injection) was 0.47 ± 0.07 % ID/g, the Salivary uptake ([1]; 3 h post-injection) was 1.45 ± 0.33 % ID/g and the Seminal uptake ([1]; 3 h post-injection) was 0.24 ± 0.05 % ID/g. It also gave a Spleen uptake ([1]; 3 h post-injection) of 2.56 ± 0.89 % ID/g, a Stomach uptake ([1]; 3 h post-injection) of 0.19 ± 0.04 % ID/g and a Tail uptake ([1]; 3 h post-injection) of 1.01 ± 0.23 % ID/g. It also gave a Testes uptake ([1]; 3 h post-injection) of 0.73 ± 0.16 % ID/g, a Thyroid uptake ([1]; 3 h post-injection) of 0.98 ± 0.25 % ID/g and a Tumor uptake ([1]; 3 h post-injection) of 31.2 ± 2.11 % ID/g. The “Tumor:Blood ratio” value ([1]; 3 h post-injection) was 13.1 ± 3.76, the “Tumor:Muscle ratio” value ([1]; 3 h post-injection) was 108 ± 13.6 and the Urine uptake ([1]; 3 h post-injection) was 88.5 ± 45.6 % ID/g. For the same molecule, the “change of tumor uptake from 1 h to 3 h post-injection” value [2] was “increases over time” and the “blood retention (qualitative)” value [2] was “significantly higher blood retention”.
With `Cc1ccc(CCCC(=O)NCC(=O)N[C@@H](CCCCNC(=O)CN2CCN(CC(=O)[O-])CCN(CC(=O)[O-])CCN(CC(=O)[O-])CC2)C(=O)NC[C@H]2CC[C@H](C(=O)N[C@@H](Cc3ccc4ccccc4c3)C(=O)NCCCC[C@H](NC(=O)N[C@@H](CCC(=O)O)C(=O)O)C(=O)O)CC2)cc1.[68Ga+3]` [^68Ga-HTK03090] the Adrenal glands uptake ([1]; 1 h post-injection) was 3.99 ± 1.94 % ID/g, the Blood uptake ([1]; 1 h post-injection) was 16.8 ± 2.14 % ID/g and the Bone uptake ([1]; 1 h post-injection) was 0.71 ± 0.10 % ID/g. It also gave a Brain uptake ([1]; 1 h post-injection) of 0.20 ± 0.02 % ID/g, a Fat uptake ([1]; 1 h post-injection) of 1.87 ± 0.80 % ID/g and a Heart uptake ([1]; 1 h post-injection) of 3.95 ± 0.72 % ID/g. It also gave an Intestine uptake ([1]; 1 h post-injection) of 1.14 ± 0.13 % ID/g, a Kidneys uptake ([1]; 1 h post-injection) of 24.3 ± 3.03 % ID/g and a Lacrimal uptake ([1]; 1 h post-injection) of 0.16 ± 0.07 % ID/g. It also gave a Liver uptake ([1]; 1 h post-injection) of 3.37 ± 0.85 % ID/g, a Lungs uptake ([1]; 1 h post-injection) of 7.68 ± 1.33 % ID/g and a Muscle uptake ([1]; 1 h post-injection) of 1.23 ± 0.15 % ID/g. It also gave a Pancreas uptake ([1]; 1 h post-injection) of 1.36 ± 0.22 % ID/g, a Salivary uptake ([1]; 1 h post-injection) of 2.48 ± 0.36 % ID/g and a Seminal uptake ([1]; 1 h post-injection) of 0.90 ± 0.15 % ID/g. It also gave a Spleen uptake ([1]; 1 h post-injection) of 2.00 ± 0.34 % ID/g, a Stomach uptake ([1]; 1 h post-injection) of 0.59 ± 0.13 % ID/g and a Tail uptake ([1]; 1 h post-injection) of 3.77 ± 0.91 % ID/g. It also gave a Testes uptake ([1]; 1 h post-injection) of 1.95 ± 0.20 % ID/g, a Thyroid uptake ([1]; 1 h post-injection) of 3.36 ± 0.24 % ID/g and a Tumor uptake ([1]; 1 h post-injection) of 8.54 ± 0.74 % ID/g. For the same molecule, the “Tumor:Blood ratio” value ([1]; 1 h post-injection) was 0.52 ± 0.10, the “Tumor:Muscle ratio” value ([1]; 1 h post-injection) was 7.09 ± 1.37 and the Urine uptake ([1]; 1 h post-injection) was 21.5 ± 9.93 % ID/g. For the same molecule, the Adrenal glands uptake ([1]; 3 h post-injection) was 2.89 ± 0.28 % ID/g, the Blood uptake ([1]; 3 h post-injection) was 13.6 ± 1.23 % ID/g and the Bone uptake ([1]; 3 h post-injection) was 0.64 ± 0.03 % ID/g. It also gave a Brain uptake ([1]; 3 h post-injection) of 0.16 ± 0.02 % ID/g, a Fat uptake ([1]; 3 h post-injection) of 1.30 ± 0.13 % ID/g and a Heart uptake ([1]; 3 h post-injection) of 3.00 ± 0.41 % ID/g. The Intestine uptake ([1]; 3 h post-injection) was 0.98 ± 0.16 % ID/g, the Kidneys uptake ([1]; 3 h post-injection) was 30.0 ± 8.66 % ID/g and the Lacrimal uptake ([1]; 3 h post-injection) was 0.10 ± 0.13 % ID/g. The Liver uptake ([1]; 3 h post-injection) was 2.73 ± 0.90 % ID/g, the Lungs uptake ([1]; 3 h post-injection) was 6.00 ± 0.88 % ID/g and the Muscle uptake ([1]; 3 h post-injection) was 1.04 ± 0.12 % ID/g. For the same molecule, the Pancreas uptake ([1]; 3 h post-injection) was 1.27 ± 0.13 % ID/g, the Salivary uptake ([1]; 3 h post-injection) was 2.15 ± 0.37 % ID/g and the Seminal uptake ([1]; 3 h post-injection) was 0.89 ± 0.05 % ID/g. The Spleen uptake ([1]; 3 h post-injection) was 1.93 ± 0.55 % ID/g, the Stomach uptake ([1]; 3 h post-injection) was 0.63 ± 0.12 % ID/g and the Tail uptake ([1]; 3 h post-injection) was 3.75 ± 1.53 % ID/g. For the same molecule, the Testes uptake ([1]; 3 h post-injection) was 2.08 ± 0.42 % ID/g, the Thyroid uptake ([1]; 3 h post-injection) was 2.76 ± 0.21 % ID/g and the Tumor uptake ([1]; 3 h post-injection) was 16.9 ± 3.16 % ID/g. For the same molecule, the “Tumor:Blood ratio” value ([1]; 3 h post-injection) was 1.25 ± 0.32, the “Tumor:Muscle ratio” value ([1]; 3 h post-injection) was 16.6 ± 4.11 and the Urine uptake ([1]; 3 h post-injection) was 53.9 ± 14.6 % ID/g. The “change of tumor uptake from 1 h to 3 h post-injection” value [2] was “increases over time” and the “blood retention (qualitative)” value [2] was “significantly higher blood retention”.
For `O=C([O-])CC[C@H](NC(=O)N[C@@H](CCCCNC(=O)[C@H](Cc1ccc2ccccc2c1)NC(=O)[C@H]1CC[C@H](CNC(=O)CN2CCN(CC(=O)[O-])CCN(CC(=O)[O-])CCN(CC(=O)[O-])CC2)CC1)C(=O)[O-])C(=O)[O-].[225Ac].[H+].[H+].[H+]` [^225Ac-PSMA-617], the response [3] is listed as “impressive responses”.
